The term EC50 denotes the concentration that produces a half-maximal response. Lower therefore signals greater potency.

This test addresses T1, human GPR119 (Homo sapiens, UniProt Q8TDV5).
T1 construct: expression vector for human GPR119 cDNA (Acc. No. NP_848566); expressed in transfected cells; Min-6/hGPR119
T1 sequence (Q8TDV5 1-335): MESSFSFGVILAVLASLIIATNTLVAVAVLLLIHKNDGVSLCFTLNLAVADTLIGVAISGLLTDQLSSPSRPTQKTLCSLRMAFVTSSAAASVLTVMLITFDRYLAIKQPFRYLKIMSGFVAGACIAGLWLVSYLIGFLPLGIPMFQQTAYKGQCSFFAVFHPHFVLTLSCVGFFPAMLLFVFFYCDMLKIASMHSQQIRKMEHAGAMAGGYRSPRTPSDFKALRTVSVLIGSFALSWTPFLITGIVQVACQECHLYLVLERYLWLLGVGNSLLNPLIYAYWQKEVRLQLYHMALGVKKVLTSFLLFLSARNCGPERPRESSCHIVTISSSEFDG
Briefly: AlphaScreen cAMP assay in MIN6 cells stably transfected with human GPR119. It is filed as cell-based. The settings on record: Min-6/hGPR119 cells, 45 min at room temperature. The method, boiled down:
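cAMP accumulation quantified by AlphaScreen after 45 min compound stimulation at about 20 °C. Stimulation buffer: pH 7.4 HEPES saline with 0.5 mM IBMX, 0.1% BSA, 1% DMSO final. Cells: MIN6 stably transfected with human GPR119, 10000/well, cultured 24 h beforehand.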
In general terms: Bead proximity is the source of the signal in Alpha formats.
As for `CC(C)(C)OC(=O)N1CCC(N(C(=O)c2cnc(-c3ccc(C(=O)NCc4cccnc4)c(F)c3)nc2)C2CC2)CC1` [Example 165, 4-[Cyclopropyl-(2-{3-fluoro-4-[(pyridin-3-ylmethyl)-carbamoyl]-phenyl}-pyrimidine-5-carbonyl)-amino]-piperidine-1-carboxylic acid tert-butyl ester], it took 0.173 µM to reach a half-maximal effect (EC50). In other words, the sub-micromolar range.

Take `CN(Cc1cccnc1)C(=O)c1ccc(-c2ncc(C(=O)N(C3CC3)C3CCN(C(=O)OC(C)(C)C)CC3)cn2)c(F)c1` [Example 166, 4-(Cyclopropyl-{2-[2-fluoro-4-(methyl-pyridin-3-ylmethyl-carbamoyl)-phenyl]-pyrimidine-5-carbonyl}-amino)-piperidine-1-carboxylic acid tert-butyl ester]: the EC50 was 0.359 µM.

Turning to `COCCNC(=O)c1ccc(-c2ncc(C(=O)N(C3CC3)C3CCN(C(=O)OC(C)(C)C)CC3)cn2)cc1F` [Example 167, 4-(Cyclopropyl-{2-[3-fluoro-4-(2-methoxy-ethylcarbamoyl)-phenyl]-pyrimidine-5-carbonyl}-amino)-piperidine-1-carboxylic acid tert-butyl ester], the EC50 worked out at 0.146 µM.

In the case of `CC(C)(C)OC(=O)N1CCC(N(C(=O)c2cnc(-c3ccc(C(=O)NCCn4ccc(C5CC5)n4)c(F)c3)nc2)C2CC2)CC1` [Example 169, 4-[Cyclopropyl-(2-{4-[2-(3-cyclopropyl-pyrazol-1-yl)-ethylcarbamoyl]-3-fluoro-phenyl}-pyrimidine-5-carbonyl)-amino]-piperidine-1-carboxylic acid tert-butyl ester], the EC50 worked out at 0.179 µM. This EC50 and that of the compound before are within 1.5-fold of each other.

Compound `CN(Cc1ccncc1)C(=O)c1ccc(-c2ncc(C(=O)N(C3CC3)C3CCN(C(=O)OC(C)(C)C)CC3)cn2)cc1` [Example 170, 4-(Cyclopropyl-{2-[4-(methyl-pyridin-4-ylmethyl-carbamoyl)-phenyl]-pyrimidine-5-carbonyl}-amino)-piperidine-1-carboxylic acid tert-butyl ester] gave a 50% effective concentration (EC50) of 0.208 µM.

In turn, `CC(C)(C)OC(=O)N1CCC(N(C(=O)c2cnc(-c3ccc(C(=O)NC4CCC(O)CC4)cc3)nc2)C2CC2)CC1` (stereo not drawn) [Example 171, 4-(Cyclopropyl-{2-[4-(4-hydroxy-cyclohexylcarbamoyl)-phenyl]-pyrimidine-5-carbonyl}-amino)-piperidine-1-carboxylic acid tert-butyl ester] displayed an EC50 of 0.383 µM.

As to `COCC(C)N(C)C(=O)c1ccc(-c2ncc(C(=O)N(C3CC3)C3CCN(C(=O)OC(C)(C)C)CC3)cn2)cc1` (stereo not drawn) [Example 172, 4-[Cyclopropyl-(2-{4-[(2-methoxy-1-methyl-ethyl)-methyl-carbamoyl]-phenyl}-pyrimidine-5-carbonyl)-amino]-piperidine-1-carboxylic acid tert-butyl ester], the EC50 is 0.226 µM.

The compound `COC(C)CN(C)C(=O)c1ccc(-c2ncc(C(=O)N(C3CC3)C3CCN(C(=O)OC(C)(C)C)CC3)cn2)cc1` (stereo not drawn) [Example 173, 4-[Cyclopropyl-(2-{4-[(2-methoxy-propyl)-methyl-carbamoyl]-phenyl}-pyrimidine-5-carbonyl)-amino]-piperidine-1-carboxylic acid tert-butyl ester] yielded an EC50 of 0.234 µM.

Turning to `COc1ccc(NC(=O)c2ccc(-c3ncc(C(=O)N(C4CC4)C4CCN(C(=O)OC(C)(C)C)CC4)cn3)cc2)cn1` [Example 174, 4-(Cyclopropyl-{2-[4-(6-methoxy-pyridin-3-ylcarbamoyl)-phenyl]-pyrimidine-5-carbonyl}-amino)-piperidine-1-carboxylic acid tert-butyl ester], the EC50 is 0.17 µM. The EC50 values of the last two compounds are within 1.5-fold of each other.

Consider `CCOCCNC(=O)c1ccc(-c2ncc(C(=O)N(C3CC3)C3CCN(C(=O)OC(C)(C)C)CC3)cn2)cc1` [Example 175, 4-(Cyclopropyl-{2-[4-(2-ethoxy-ethylcarbamoyl)-phenyl]-pyrimidine-5-carbonyl}-amino)-piperidine-1-carboxylic acid tert-butyl ester], for which a half-maximal response (EC50) required 0.165 µM.

`CC(C)(C)OC(=O)N1CCC(N(C(=O)c2cnc(-c3ccc(C(=O)Nc4ccc(CO)cc4)cc3)nc2)C2CC2)CC1` [Example 176, 4-(Cyclopropyl-{2-[4-(4-hydroxymethyl-phenylcarbamoyl)-phenyl]-pyrimidine-5-carbonyl}-amino)-piperidine-1-carboxylic acid tert-butyl ester] had an EC50 of 0.346 µM.

`CN(CCC#N)C(=O)c1ccc(-c2ncc(C(=O)N(C3CC3)C3CCN(C(=O)OC(C)(C)C)CC3)cn2)cc1` [Example 177, 4-[(2-{4-[(2-Cyano-ethyl)-methyl-carbamoyl]-phenyl}-pyrimidine-5-carbonyl)-cyclopropyl-amino]-piperidine-1-carboxylic acid tert-butyl ester] returned an EC50 of 0.456 µM.

The compound `CC(C)(C)OC(=O)N1CCC(N(C(=O)c2cnc(-c3ccc(C(=O)N4CCCOCC4)cc3)nc2)C2CC2)CC1` [Example 178, 4-(Cyclopropyl-{2-[4-([1,4]oxazepane-4-carbonyl)-phenyl]-pyrimidine-5-carbonyl}-amino)-piperidine-1-carboxylic acid tert-butyl ester] returned an EC50 of 0.237 µM.

`CO[C@@H]1CCN(C(=O)c2ccc(-c3ncc(C(=O)N(C4CC4)C4CCN(C(=O)OC(C)(C)C)CC4)cn3)cc2)C1` [Example 179, 4-(Cyclopropyl-{2-[4-(3-methoxy-pyrrolidine-1-carbonyl)-phenyl]-pyrimidine-5-carbonyl}-amino)-piperidine-1-carboxylic acid tert-butyl ester] returned an EC50 of 0.338 µM. The EC50 values of the last two compounds are within 1.5-fold of each other.

The compound `CC(C)(C)OC(=O)N1CCC(N(C(=O)c2cnc(-c3ccc(CC(=O)Nc4ccccc4)cc3)nc2)C2CC2)CC1` [Example 180, 4-{Cyclopropyl-[2-(4-phenylcarbamoylmethyl-phenyl)-pyrimidine-5-carbonyl]-amino}-piperidine-1-carboxylic acid tert-butyl ester] gave an EC50 of 0.289 µM.

In turn, `COC1CCN(C(=O)c2ccc(-c3ncc(C(=O)N(C4CC4)C4CCN(C(=O)OC(C)(C)C)CC4)cn3)cc2)CC1` [Example 181, 4-(Cyclopropyl-{2-[4-(4-methoxy-piperidine-1-carbonyl)-phenyl]-pyrimidine-5-carbonyl}-amino)-piperidine-1-carboxylic acid tert-butyl ester] gave an EC50 of 0.206 µM.

On to `COCC1CCCCN1C(=O)c1ccc(-c2ncc(C(=O)N(C3CC3)C3CCN(C(=O)OC(C)(C)C)CC3)cn2)cc1` (stereo not drawn) [Example 182, 4-(Cyclopropyl-{2-[4-(2-methoxymethyl-piperidine-1-carbonyl)-phenyl]-pyrimidine-5-carbonyl}-amino)-piperidine-1-carboxylic acid tert-butyl ester], for which the EC50 stood at 0.319 µM.

Turning to `CC(C)(C)OC(=O)N1CCC(N(C(=O)c2cnc(-c3ccc(C(=O)Nc4ccccc4)cc3)nc2)C2CC2)CC1` [Example 183, 4-{Cyclopropyl-[2-(4-phenylcarbamoyl-phenyl)-pyrimidine-5-carbonyl]-amino}-piperidine-1-carboxylic acid tert-butyl ester], the EC50 came to 0.063 µM.

As for `CC(C)(C)OC(=O)N1CCC(N(C(=O)c2cnc(-c3ccc(CC(=O)N4CC(F)(F)C4)cc3)nc2)C2CC2)CC1` [Example 184, 4-[Cyclopropyl-(2-{4-[2-(3,3-difluoro-azetidin-1-yl)-2-oxo-ethyl]-phenyl}-pyrimidine-5-carbonyl)-amino]-piperidine-1-carboxylic acid tert-butyl ester], the EC50 was determined as 0.149 µM.

Regarding `COCc1sc(NC(=O)c2ccc(-c3ncc(C(=O)N(C4CC4)C4CCN(C(=O)OC(C)(C)C)CC4)cn3)cc2)nc1C` [Example 185, 4-(Cyclopropyl-{2-[4-(5-methoxymethyl-4-methyl-thiazol-2-ylcarbamoyl)-phenyl]-pyrimidine-5-carbonyl}-amino)-piperidine-1-carboxylic acid tert-butyl ester], the EC50 is 0.39 µM.

For the compound `CN(CC1(C)COC1)C(=O)Cc1ccc(-c2ncc(C(=O)N(C3CC3)C3CCN(C(=O)OC(C)(C)C)CC3)cn2)cc1` [Example 186, 4-{Cyclopropyl-[2-(4-{[methyl-(3-methyl-oxetan-3-ylmethyl)-carbamoyl]-methyl}-phenyl)-pyrimidine-5-carbonyl]-amino}-piperidine-1-carboxylic acid tert-butyl ester], the EC50 amounted to 0.617 µM.

Turning to `CC(C)(C)OC(=O)N1CCC(N(C(=O)c2cnc(-c3ccc(C(=O)N4CC(F)(F)C4)cc3)nc2)C2CC2)CC1` [Example 187, 4-(Cyclopropyl-{2-[4-(3,3-difluoro-azetidine-1-carbonyl)-phenyl]-pyrimidine-5-carbonyl}-amino)-piperidine-1-carboxylic acid tert-butyl ester], the EC50 came out at 0.122 µM.

`COc1ccc(NC(=O)Cc2ccc(-c3ncc(C(=O)N(C4CC4)C4CCN(C(=O)OC(C)(C)C)CC4)cn3)cc2)c(OC)c1` [Example 188, 4-[Cyclopropyl-(2-{4-[(2,4-dimethoxy-phenylcarbamoyl)-methyl]-phenyl}-pyrimidine-5-carbonyl)-amino]-piperidine-1-carboxylic acid tert-butyl ester]: the EC50 came to 0.311 µM.

`CC(C)(C)OC(=O)N1CCC(N(C(=O)c2cnc(-c3ccc(CC(=O)NC[C@H]4CCCC[C@H]4O)cc3)nc2)C2CC2)CC1` [Example 189] returned an EC50 of 0.434 µM.

These data come from patent publication US20140045823A1 (Neurocrine Biosciences, Inc., priority 2012, published 2014).
